According to patent US5321032A, “Peptide compounds and pharmaceutical compositions thereof” (priority 1990, dated 1994):

Target: T1, substance P receptor (Cavia porcellus, UniProt P30547)
T1 construct: The trachea and lung were removed and homogenized in buffer; from tissue; host or cells: guinea pig trachea and lung, crude membrane fraction
Assay: 3H-Substance P binding to guinea pig crude lung membrane preparation
Conditions: test compound 1 μg/ml; 3H-substance P 1 nM; crude lung membrane fractions, 4° C., 30 minutes
Protocol: 1. Binding with ^3 H-P substance receptor
(a) Crude lung membrane preparation
Male Hartly strain guinea pigs were sacrificed by decapitation, The trachea and lung were removed and homogenized in buffer (0.25M sucrose, 50 mM Tris-HCl pH 7.5, 0.1 mM MEDTA) by using Polytoron (Kinematica). The homogenate was centrifuged (1000 x g, 10 min) to remove tissue clumps and the supernatant was centrifuges (14000 x g, 20 min) to yield pellets. The pellets were resuspended in buffer (5 mM Tris-HC1 pH 7.5), homofenized with a teflon homogenizer and centrifuged (14000 x g, 20 min) to yield pellets which were referred to crude membrane fractions. The obtained pallets were stored at -70 ° C. until use.
(b) ^3 H-Substance P binding to preparation membrane
Frozen crude membrane fractions were thawed and resuspended in Medium 1 (50 mM Tris-HC1 pH 7.5, 5 mM MnCl2, 0.02% BSA, 2 μg/ml chymostatin, 4 μg/ml leupeptin, 40 μg/ml bacitaracin). ^3 H-substance P (1 nM ) was incubated with 100 μl of the membrane preparation in Medium 1 at 4° C. for 30 minutes in a final volume of 500 μl. At the end of the incubation over a Whatman GF/B glass filter (pretreated with 0.1% polyethylene imine for 3 hours prior to use) under aspiration. The filters werre then washed four times with 5 ml of the buffer (50 mM Tris-HCl, pH 7.5). The radioactivity was counted in 5 ml of Aquazol-2 in Packerd scintillation counter (Packerd TRI-CARB 4530).

T1 sequence (P30547 whole entry): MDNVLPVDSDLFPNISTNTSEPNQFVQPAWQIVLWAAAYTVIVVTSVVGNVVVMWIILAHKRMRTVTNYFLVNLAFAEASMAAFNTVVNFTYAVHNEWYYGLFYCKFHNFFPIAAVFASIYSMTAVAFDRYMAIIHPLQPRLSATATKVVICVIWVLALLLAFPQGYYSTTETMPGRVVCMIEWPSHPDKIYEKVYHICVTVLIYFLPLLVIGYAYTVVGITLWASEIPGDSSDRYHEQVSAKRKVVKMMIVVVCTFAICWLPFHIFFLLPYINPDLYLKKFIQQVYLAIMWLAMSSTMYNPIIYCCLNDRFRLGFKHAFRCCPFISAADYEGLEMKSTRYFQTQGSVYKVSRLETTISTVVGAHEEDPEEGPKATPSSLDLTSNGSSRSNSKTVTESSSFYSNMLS

| Compound | suppression rate (%) |
| --- | --- |
| CC(=O)N[C@H](C(=O)N[C@H](Cc1cn(C=O)c2ccccc12)C(=O)N[C@@H](Cc1cccs1)C(=O)N(C)Cc1ccccc1)[C@@H](C)O [(a)] | 100 |
| CC(=O)N[C@H](C(=O)N[C@H](Cc1cn(C=O)c2ccccc12)C(=O)N1Cc2ccccc2C[C@@H]1C(=O)N(C)Cc1ccccc1)[C@@H](C)O [(b)] | 99 |
| CC(=O)N[C@H](C(=O)N[C@H](Cc1cn(C=O)c2ccccc12)C(=O)N(C)[C@@H](Cc1ccccc1)C(=O)N(C)Cc1ccccc1)[C@@H](C)O [(c)] | 96 |
